Experimental data published in patent US6534486B1, “2-(purin-9-yl)-Tetrahydrofuran-3,4-diol derivatives” (SmithKline Beecham Corporation, priority 1998, dated 2003).

How the values were obtained:
Assay type in all cases: cell-based
Details in all cases: ratio of EC50 to that of NECA, CHO cells transfected with human receptor, SPAP readout
[1] = biological target: T1, human adenosine 1 receptor (Homo sapiens, UniProt P30542); experiment: Agonist activity at adenosine 1 receptor, CHO cells with CRE-SPAP reporter (forskolin-enhanced cAMP)
T1 sequence (P30542 1-326): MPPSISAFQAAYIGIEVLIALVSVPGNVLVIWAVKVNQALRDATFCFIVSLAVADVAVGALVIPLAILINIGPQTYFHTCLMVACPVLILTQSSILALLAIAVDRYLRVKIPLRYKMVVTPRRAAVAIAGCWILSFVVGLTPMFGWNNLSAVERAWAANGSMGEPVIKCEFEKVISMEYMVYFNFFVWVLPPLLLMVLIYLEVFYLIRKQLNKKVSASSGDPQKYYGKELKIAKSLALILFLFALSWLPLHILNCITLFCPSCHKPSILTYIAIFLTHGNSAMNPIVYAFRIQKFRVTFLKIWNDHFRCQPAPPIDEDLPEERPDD
Description: (§1) (1) Agonist activity against adenosine 2a, adenosine 1 and adenosine 3 receptor subtypes.
(§2) Agonist selectivity of compounds against other human adenosine receptors was determined using Chinese hamster ovary (CHO) cells transfected with the gene for the relevant human adenosine receptor following a method based on that of Castanon and Spevak, 1994. The CHO cells were also transfected with cyclic AMP response elements promoting the gene for secreted placental alkaline phosphatase (SPAP) (Wood, 1995). The effect of test compounds was determined by their effects on basal levels of cAMP (A2a) or on forskolin-enhanced cAMP (A1 and A3) as reflected by changes in levels of SPAP. EC50 values for compounds were then determined as a ratio to that of the non-selective agonist N-ethyl carboxamide adenosine (NECA).

[2] = biological target: human adenosine 2a receptor (Homo sapiens, UniProt P29274); experiment: Agonist activity at adenosine 2a receptor, CHO cells with CRE-SPAP reporter (basal cAMP)
Chain of human adenosine 2a receptor (P29274 whole entry): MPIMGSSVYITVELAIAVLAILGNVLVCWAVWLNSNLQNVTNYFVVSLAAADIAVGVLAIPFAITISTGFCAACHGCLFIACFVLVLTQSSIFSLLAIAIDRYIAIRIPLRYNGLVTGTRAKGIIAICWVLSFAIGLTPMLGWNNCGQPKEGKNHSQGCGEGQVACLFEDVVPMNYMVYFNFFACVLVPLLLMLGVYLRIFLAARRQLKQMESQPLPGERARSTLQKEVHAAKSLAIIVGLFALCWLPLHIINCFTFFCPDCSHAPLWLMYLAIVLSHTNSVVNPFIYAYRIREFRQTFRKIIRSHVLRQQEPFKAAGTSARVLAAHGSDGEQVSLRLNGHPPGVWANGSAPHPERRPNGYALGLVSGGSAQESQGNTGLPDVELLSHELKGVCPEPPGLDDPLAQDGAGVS
Description: as §1, §2

[3] = biological target: T2, human adenosine 3 receptor (Homo sapiens, UniProt P0DMS8); experiment: Agonist activity at adenosine 3 receptor, CHO cells with CRE-SPAP reporter (forskolin-enhanced cAMP)
T2 sequence (P0DMS8 1-318): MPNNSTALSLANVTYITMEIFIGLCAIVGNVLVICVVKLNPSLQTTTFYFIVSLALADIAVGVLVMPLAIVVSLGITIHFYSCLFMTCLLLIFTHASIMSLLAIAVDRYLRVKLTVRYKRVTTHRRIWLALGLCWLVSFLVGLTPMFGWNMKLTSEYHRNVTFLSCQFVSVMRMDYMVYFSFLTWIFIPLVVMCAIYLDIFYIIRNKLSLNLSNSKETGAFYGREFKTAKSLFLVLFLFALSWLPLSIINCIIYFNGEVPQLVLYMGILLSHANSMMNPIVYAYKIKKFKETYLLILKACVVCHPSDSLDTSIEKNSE
Description: as §1, §2

SMILES | A1, EC50 values as a ratio of that of NECA [1] | A2a, EC50 values as a ratio of that of NECA [2] | A3, EC50 values as a ratio of that of NECA [3]
OC1C(Cn2cncn2)OC(n2cnc3c(NCC(c4ccccc4)c4ccccc4)nc(NC4CCNC4)nc32)C1O [Example 2, (2R,3R,4S,5R)-2-[6-(2,2-Diphenyl-ethylamino)-2-(pyrrolidin-3R-ylamino)-purin-9-yl]-5-[1,2,4]triazol-1-ylmethyl-tetrahydro-furan-3,4-diol diformate] | >8479 | 14.4 | >152
Cn1cnc(CCNc2nc(NCC(c3ccccc3)c3ccccc3)c3ncn([C@@H]4O[C@H](CN5C(=O)CNC5=O)[C@@H](O)[C@H]4O)c3n2)c1.O=CO.O=CO [Example 5, 3-(5R-{6-(2,2-Diphenyl-ethylamino)-2-[2-(1-methyl-1-H-imidazol-4-yl)-ethylamino]-purin-9-yl}3S,4R-dihydroxy-tetrahydro-furan-2R-ylmethyl)-imidazolidine-2,4-dione diformate] | 8479 | 13.46 | >270
Cn1cnc(CCNc2nc(NCC(c3ccccc3)c3ccccc3)c3ncn(C4OC(Cn5nccn5)C(O)C4O)c3n2)c1 [Example 3, (2R,3R,4S,5R)-2-{6-(2,2-Diphenyl-ethylamino)-2-[2-(1-methyl-1-H-imidazol-4-yl)-ethylamino]-purin-9-yl}-5-[1,2,3]triazol-2-ylmethyl-tetrahydro-furan-3,4-diol diformate] | 3038.8 | 1.31 | >147
N[C@H]1CC[C@H](Nc2nc(NCC(c3ccccc3)c3ccccc3)c3ncn([C@@H]4O[C@H](Cn5nccn5)[C@@H](O)[C@H]4O)c3n2)CC1.O=CO [Example 1, (2R,3R,4S, 5R)-2-[2-(trans-4-Amino-cyclohexylamino)6-(2,2-diphenyl-ethylamino)-purin-9-yl]-5-[1,2,3]triazol-2-ylmethyl-tetrahydro-furan-3,4-diol formate] | >=3969 | 17.1 | >656
OC1CCCC1Nc1nc(NCC(c2ccccc2)c2ccccc2)c2ncn(C3OC(Cn4cncn4)C(O)C3O)c2n1 [Example 6, (2R,3R,4S,5R)-2-[6-(2,2-Diphenyl-ethylamino)-2-(2R-hydroxy-cyclopent-(R)-ylamino)-purin-9-yl]-5-[1,2,4]triazol-1-ylmethyl-tetrahydro-furan-3,4-diol format] | >=3397 | 23.7 | >274
O=CO.O[C@@H]1[C@H](O)[C@@H](Cn2nccn2)O[C@H]1n1cnc2c(NCC(c3ccccc3)c3ccccc3)nc(NCCN3CCOCC3)nc21 [Example 4, (2R,3R,4S,5R)-2-[6-(2,2-Diphenyl-ethylamino)-2-(2-morpholin-4-yl-ethylamino)-purin-9-yl]-5-[1,2,3]triazol-2-ylmethyl-tetrahydro-furan-3,4-diol formate] | 1014 | 16.9 | >174
